Measurements from patent US7205382B2, “Peptides, the production and use thereof for binding immunoglobulins” (Fresenius Medical Care Affina GmbH, priority 2000, dated 2007).
Bridge positions count the residues as written; N and C are the ends. Square brackets hold non-standard residues; d marks the D form. Ends that are not written are not given here. cellulose = not defined here; βAla = NCCC(=O)O

What was measured:
Format in all cases: binding
Parameters in all cases: key: No binding of immunoglobulin for the defined peptide variant, detection negative: 0; Binding of immunoglobulin for the defined peptide variant, detection positive: +
serum albumin = assay: Cellulose-immobilized 13-mer peptide variants incubated with serum albumin (negative control), anti-human IgG-AP detection; details: blocking buffer without addition, 3 h room temperature
Procedure, shortened: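 SPOT-type 13-mer peptides on cellulose with a (βA)(βA) spacer, blocked in 5% saccharose/4% BSA in T-TBS pH 8.0. Incubated 3 h at RT with human IgG-Fc (1 μg/ml) or human serum/plasma (1:10,000), or with blocking buffer alone as the albumin specificity control. Bound IgG detected with AP-anti-human IgG (1.2 μg/ml) and NBT/BCIP colorimetric development at pH 9.5.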

[1] = tested on: immunoglobulins in human plasma; assay: Cellulose-immobilized 13-mer peptide variants incubated with human plasma, anti-human IgG-AP detection; details: human plasma as sample, diluted 1:10,000 in blocking buffer, 3 h room temperature
Procedure, shortened: (§1)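 Membrane-bound peptides, spaced by two β-alanines, are probed with 1 μg/ml IgG-Fc or 1:10,000 serum for 3 h at room temperature; blocking buffer alone acts as control. Detection uses anti-human IgG-AP (1.2 μg/ml) and NBT/BCIP.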

human IgG-Fc = assay: Cellulose-immobilized 13-mer peptide variants incubated with human IgG-Fc, anti-human IgG-AP detection; details: IgG-Fc 1 μg/ml in blocking buffer, 3 h room temperature
Procedure, shortened: as §1

05R: cellulose-bound 13-mer variant DCAWRLGELVWCT-(βA)(βA) (disulfide 2-12 (inferred); not fully specified (N-terminus, C-terminus); printed as DCAWRLGELVWCT-(βA)(βA); also: cellulose-bound)
Result for incubation with serum albumin (immunoglobulin binding detection) (serum albumin): 0 | Result for incubation with human plasma (immunoglobulin binding detection) [1]: 0 | Result for incubation with human IgG-Fc (immunoglobulin binding detection) (human IgG-Fc): 0

05M: cellulose-bound 13-mer variant DCAWMLGELVWCT-(βA)(βA) (disulfide 2-12 (inferred); not fully specified (N-terminus, C-terminus); printed as DCAWMLGELVWCT-(βA)(βA); also: cellulose-bound)
Result for incubation with serum albumin (immunoglobulin binding detection) (serum albumin): 0 | Result for incubation with human plasma (immunoglobulin binding detection) [1]: 0 | Result for incubation with human IgG-Fc (immunoglobulin binding detection) (human IgG-Fc): 0

10W: cellulose-bound 13-mer variant DCAWHLGELWWCT-(βA)(βA) (DCAWHLGELWWCT-{βAla-βAla-cellulose}; disulfide 2-12 (inferred); reading uncertain; also: printed as DCAWHLGELWWCT-(βA)(βA))
Result for incubation with serum albumin (immunoglobulin binding detection) (serum albumin): 0 | Result for incubation with human plasma (immunoglobulin binding detection) [1]: 0 | Result for incubation with human IgG-Fc (immunoglobulin binding detection) (human IgG-Fc): 0

11D: cellulose-bound 13-mer variant DCAWHLGELVDCT-(βA)(βA) (DCAWHLGELVDCT-{βAla-βAla-cellulose}; disulfide 2-12 (inferred); reading uncertain; also: printed as DCAWHLGELVDCT-(βA)(βA))
Result for incubation with serum albumin (immunoglobulin binding detection) (serum albumin): 0 | Result for incubation with human plasma (immunoglobulin binding detection) [1]: 0 | Result for incubation with human IgG-Fc (immunoglobulin binding detection) (human IgG-Fc): 0

01H: cellulose-bound 13-mer variant HCAWHLGELVWCT-(βA)(βA) (HCAWHLGELVWCT-{βAla-βAla-cellulose}; disulfide 2-12 (inferred); reading uncertain; also: printed as HCAWHLGELVWCT-(βA)(βA))
Result for incubation with serum albumin (immunoglobulin binding detection) (serum albumin): 0 | Result for incubation with human plasma (immunoglobulin binding detection) [1]: 0 | Result for incubation with human IgG-Fc (immunoglobulin binding detection) (human IgG-Fc): +

06E: cellulose-bound 13-mer variant DCAWHEGELVWCT-(βA)(βA) (DCAWHEGELVWCT[βAla][βAla]; disulfide 2-12 (inferred); not fully specified (N-terminus); printed as DCAWHEGELVWCT-(βA)(βA); also: cellulose-bound)
Result for incubation with serum albumin (immunoglobulin binding detection) (serum albumin): 0 | Result for incubation with human plasma (immunoglobulin binding detection) [1]: 0 | Result for incubation with human IgG-Fc (immunoglobulin binding detection) (human IgG-Fc): +

02V: cellulose-bound 13-mer variant DVAWHLGELVWCT-(βA)(βA) (DVAWHLGELVWCT[βAla][βAla]; not fully specified; printed as DVAWHLGELVWCT-(βA)(βA); also: cellulose-bound)
Result for incubation with serum albumin (immunoglobulin binding detection) (serum albumin): 0 | Result for incubation with human plasma (immunoglobulin binding detection) [1]: 0 | Result for incubation with human IgG-Fc (immunoglobulin binding detection) (human IgG-Fc): 0

09F: cellulose-bound 13-mer variant DCAWHLGEFVWCT-(βA)(βA) (DCAWHLGEFVWCT-{βAla-βAla-cellulose}; disulfide 2-12 (inferred); reading uncertain; also: printed as DCAWHLGEFVWCT-(βA)(βA))
Result for incubation with serum albumin (immunoglobulin binding detection) (serum albumin): 0 | Result for incubation with human plasma (immunoglobulin binding detection) [1]: 0 | Result for incubation with human IgG-Fc (immunoglobulin binding detection) (human IgG-Fc): 0

06G: cellulose-bound 13-mer variant DCAWHGGELVWCT-(βA)(βA) (DCAWHGGELVWCT[βAla][βAla]; disulfide 2-12 (inferred); not fully specified (N-terminus); printed as DCAWHGGELVWCT-(βA)(βA); also: cellulose-bound)
Result for incubation with serum albumin (immunoglobulin binding detection) (serum albumin): 0 | Result for incubation with human plasma (immunoglobulin binding detection) [1]: + | Result for incubation with human IgG-Fc (immunoglobulin binding detection) (human IgG-Fc): +

08A: cellulose-bound 13-mer variant DCAWHLGALVWCT-(βA)(βA) (DCAWHLGALVWCT-{βAla-βAla-cellulose}; disulfide 2-12 (inferred); not fully specified (N-terminus); printed as DCAWHLGALVWCT-(βA)(βA); reading uncertain)
Result for incubation with serum albumin (immunoglobulin binding detection) (serum albumin): 0 | Result for incubation with human plasma (immunoglobulin binding detection) [1]: 0 | Result for incubation with human IgG-Fc (immunoglobulin binding detection) (human IgG-Fc): +

10Y: cellulose-bound 13-mer variant DCAWHLGELYWCT-(βA)(βA) (DCAWHLGELYWCT-{βAla-βAla-cellulose}; disulfide 2-12 (inferred); reading uncertain; also: printed as DCAWHLGELYWCT-(βA)(βA))
Result for incubation with serum albumin (immunoglobulin binding detection) (serum albumin): 0 | Result for incubation with human plasma (immunoglobulin binding detection) [1]: 0 | Result for incubation with human IgG-Fc (immunoglobulin binding detection) (human IgG-Fc): 0

01Y: cellulose-bound 13-mer variant YCAWHLGELVWCT-(βA)(βA) (YCAWHLGELVWCT-{βAla-βAla-cellulose}; disulfide 2-12 (inferred); reading uncertain; also: printed as YCAWHLGELVWCT-(βA)(βA))
Result for incubation with serum albumin (immunoglobulin binding detection) (serum albumin): 0 | Result for incubation with human plasma (immunoglobulin binding detection) [1]: 0 | Result for incubation with human IgG-Fc (immunoglobulin binding detection) (human IgG-Fc): 0

11G: cellulose-bound 13-mer variant DCAWHLGELVGCT-(βA)(βA)
Result for incubation with serum albumin (immunoglobulin binding detection) (serum albumin): 0 | Result for incubation with human plasma (immunoglobulin binding detection) [1]: 0 | Result for incubation with human IgG-Fc (immunoglobulin binding detection) (human IgG-Fc): 0

08V: cellulose-bound 13-mer variant DCAWHLGVLVWCT-(βA)(βA) (DCAWHLGVLVWCT-{βAla-βAla-cellulose}; disulfide 2-12 (inferred); reading uncertain; also: printed as DCAWHLGVLVWCT-(βA)(βA))
Result for incubation with serum albumin (immunoglobulin binding detection) (serum albumin): 0 | Result for incubation with human plasma (immunoglobulin binding detection) [1]: 0 | Result for incubation with human IgG-Fc (immunoglobulin binding detection) (human IgG-Fc): 0

09W: cellulose-bound 13-mer variant DCAWHLGEWVWCT-(βA)(βA) (DCAWHLGEWVWCT-{βAla-βAla-cellulose}; disulfide 2-12 (inferred); reading uncertain; also: printed as DCAWHLGEWVWCT-(βA)(βA))
Result for incubation with serum albumin (immunoglobulin binding detection) (serum albumin): 0 | Result for incubation with human plasma (immunoglobulin binding detection) [1]: 0 | Result for incubation with human IgG-Fc (immunoglobulin binding detection) (human IgG-Fc): 0

01R: cellulose-bound 13-mer variant RCAWHLGELVWCT-(βA)(βA) (RCAWHLGELVWCT-{βAla-βAla-cellulose}; disulfide 2-12 (inferred); reading uncertain; also: printed as RCAWHLGELVWCT-(βA)(βA))
Result for incubation with serum albumin (immunoglobulin binding detection) (serum albumin): 0 | Result for incubation with human plasma (immunoglobulin binding detection) [1]: 0 | Result for incubation with human IgG-Fc (immunoglobulin binding detection) (human IgG-Fc): +

02Y: cellulose-bound 13-mer variant DYAWHLGELVWCT-(βA)(βA) (DYAWHLGELVWCT[βAla][βAla]; not fully specified; printed as DYAWHLGELVWCT-(βA)(βA); also: cellulose-bound)
Result for incubation with serum albumin (immunoglobulin binding detection) (serum albumin): 0 | Result for incubation with human plasma (immunoglobulin binding detection) [1]: 0 | Result for incubation with human IgG-Fc (immunoglobulin binding detection) (human IgG-Fc): 0

08H: cellulose-bound 13-mer variant DCAWHLGHLVWCT-(βA)(βA) (DCAWHLGHLVWCT-{βAla-βAla-cellulose}; disulfide 2-12 (inferred); not fully specified (N-terminus); printed as DCAWHLGHLVWCT-(βA)(βA); reading uncertain)
Result for incubation with serum albumin (immunoglobulin binding detection) (serum albumin): 0 | Result for incubation with human plasma (immunoglobulin binding detection) [1]: + | Result for incubation with human IgG-Fc (immunoglobulin binding detection) (human IgG-Fc): +

07S: cellulose-bound 13-mer variant DCAWHLSELVWCT-(βA)(βA) (DCAWHLSELVWCT-{βAla-βAla-cellulose}; disulfide 2-12 (inferred); not fully specified (N-terminus); printed as DCAWHLSELVWCT-(βA)(βA); reading uncertain)
Result for incubation with serum albumin (immunoglobulin binding detection) (serum albumin): 0 | Result for incubation with human plasma (immunoglobulin binding detection) [1]: 0 | Result for incubation with human IgG-Fc (immunoglobulin binding detection) (human IgG-Fc): 0

05D: cellulose-bound 13-mer variant DCAWDLGELVWCT-(βA)(βA) (disulfide 2-12 (inferred); not fully specified (N-terminus, C-terminus); printed as DCAWDLGELVWCT-(βA)(βA); also: cellulose-bound)
Result for incubation with serum albumin (immunoglobulin binding detection) (serum albumin): 0 | Result for incubation with human plasma (immunoglobulin binding detection) [1]: 0 | Result for incubation with human IgG-Fc (immunoglobulin binding detection) (human IgG-Fc): 0

09G: cellulose-bound 13-mer variant DCAWHLGEGVWCT-(βA)(βA) (DCAWHLGEGVWCT-{βAla-βAla-cellulose}; disulfide 2-12 (inferred); reading uncertain; also: printed as DCAWHLGEGVWCT-(βA)(βA))
Result for incubation with serum albumin (immunoglobulin binding detection) (serum albumin): 0 | Result for incubation with human plasma (immunoglobulin binding detection) [1]: 0 | Result for incubation with human IgG-Fc (immunoglobulin binding detection) (human IgG-Fc): 0
